Structures are written as SMILES. Structures can show the parent of a compound that is named as a salt.

The test addresses CcpA (Streptococcus pneumoniae, UniProt A0A0H2ZQ65). To be noted: 10 mM; room temperature; raises DNA affinity; direct binding of formate not shown.

CcpA, sequence (A0A0H2ZQ65 entry or part of it): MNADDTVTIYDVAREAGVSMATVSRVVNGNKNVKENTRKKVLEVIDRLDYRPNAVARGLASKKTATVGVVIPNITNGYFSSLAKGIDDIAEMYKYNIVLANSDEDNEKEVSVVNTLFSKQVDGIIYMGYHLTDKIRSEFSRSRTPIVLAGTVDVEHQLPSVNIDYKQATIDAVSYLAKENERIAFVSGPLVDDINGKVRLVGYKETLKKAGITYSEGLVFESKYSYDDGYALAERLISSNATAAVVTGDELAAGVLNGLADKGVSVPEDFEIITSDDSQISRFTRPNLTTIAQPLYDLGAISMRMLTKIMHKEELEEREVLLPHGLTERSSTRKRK

Take `O=CO` [sodium formate]: the “EMSA with pflB promoter DNA, protein preincubated with compound” value is recorded as “formate enhanced the binding of CcpA to PpflB”.

The values above are taken from PMC5327383, “Pneumococcal galactose catabolism is controlled by multiple regulators acting on pyruvate formate lyase” (Scientific Reports, 2017).
